{"source": "paper PMC8209656", "about": "(The Journal of endocrinology, 2010)", "assay_in_all_cases": "ethoxyresorufin-O-deethylase fluorescence, recombinant membranes", "format_in_all_cases": "biochemical", "settings_in_all_cases": "30 °C; human CPR co-expressed", "key": {"CYP1C2": {"biological_target": "T1, CYP1C2 (Danio rerio, UniProt A0AC58HLV5)", "T1 sequence (A0AC58HLV5 1-514)": "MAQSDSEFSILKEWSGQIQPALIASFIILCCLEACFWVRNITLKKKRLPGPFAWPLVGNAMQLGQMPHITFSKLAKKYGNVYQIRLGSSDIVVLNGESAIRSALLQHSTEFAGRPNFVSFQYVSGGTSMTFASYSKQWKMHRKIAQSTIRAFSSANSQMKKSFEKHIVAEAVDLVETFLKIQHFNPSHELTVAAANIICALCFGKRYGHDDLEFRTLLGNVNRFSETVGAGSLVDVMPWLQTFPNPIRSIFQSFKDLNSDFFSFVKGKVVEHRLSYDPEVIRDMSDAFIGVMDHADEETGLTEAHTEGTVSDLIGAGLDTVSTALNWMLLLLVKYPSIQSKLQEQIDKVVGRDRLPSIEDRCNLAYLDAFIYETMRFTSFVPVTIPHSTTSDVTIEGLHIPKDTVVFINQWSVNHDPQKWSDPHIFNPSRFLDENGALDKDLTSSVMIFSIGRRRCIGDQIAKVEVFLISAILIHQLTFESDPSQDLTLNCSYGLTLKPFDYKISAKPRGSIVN"}, "CYP1B1": {"biological_target": "T2, CYP1B1 (Danio rerio, UniProt Q1JQ70)", "T2 sequence (Q1JQ70 1-526)": "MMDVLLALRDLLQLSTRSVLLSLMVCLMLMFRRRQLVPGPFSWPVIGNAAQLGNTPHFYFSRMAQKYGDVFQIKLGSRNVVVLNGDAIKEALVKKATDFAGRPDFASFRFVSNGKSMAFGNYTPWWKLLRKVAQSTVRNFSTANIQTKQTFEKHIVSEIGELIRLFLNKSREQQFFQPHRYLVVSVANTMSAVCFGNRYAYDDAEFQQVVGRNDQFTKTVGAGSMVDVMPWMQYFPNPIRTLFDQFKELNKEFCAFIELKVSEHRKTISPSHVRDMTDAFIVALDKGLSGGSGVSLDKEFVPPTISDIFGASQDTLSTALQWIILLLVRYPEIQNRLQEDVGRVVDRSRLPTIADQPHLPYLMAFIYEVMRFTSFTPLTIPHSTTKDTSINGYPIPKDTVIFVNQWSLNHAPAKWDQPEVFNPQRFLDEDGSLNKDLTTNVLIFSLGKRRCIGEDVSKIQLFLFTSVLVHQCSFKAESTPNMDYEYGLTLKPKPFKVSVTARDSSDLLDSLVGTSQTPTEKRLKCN"}, "CYP1C1": {"biological_target": "T3, CYP1C1 (Danio rerio, UniProt A0A8M1N631)", "T3 sequence (A0A8M1N631 13-523)": "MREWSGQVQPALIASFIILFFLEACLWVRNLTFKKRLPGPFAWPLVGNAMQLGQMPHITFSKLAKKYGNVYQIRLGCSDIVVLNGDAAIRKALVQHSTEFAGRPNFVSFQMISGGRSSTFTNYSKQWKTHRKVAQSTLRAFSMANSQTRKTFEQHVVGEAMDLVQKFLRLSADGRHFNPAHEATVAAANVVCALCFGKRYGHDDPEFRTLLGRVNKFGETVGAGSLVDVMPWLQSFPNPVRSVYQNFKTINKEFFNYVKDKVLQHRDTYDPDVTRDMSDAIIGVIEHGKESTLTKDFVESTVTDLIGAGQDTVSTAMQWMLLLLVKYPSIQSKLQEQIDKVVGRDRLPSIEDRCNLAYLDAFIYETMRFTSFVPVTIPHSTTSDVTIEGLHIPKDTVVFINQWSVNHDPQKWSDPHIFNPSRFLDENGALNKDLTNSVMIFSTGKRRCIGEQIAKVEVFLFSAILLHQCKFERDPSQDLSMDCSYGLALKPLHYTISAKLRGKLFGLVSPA"}}, "data": [{"compound": "CCOc1ccc2nc3ccc(=O)cc-3oc2c1", "note": "[7-ethoxyresorufin]", "values": [{"measurement": "ethoxyresorufin-O-deethylase fluorescence, recombinant membranes", "setting": "CYP1C2", "result": "All CYP1s showed catalytic activity for 7-ER and BFC except for CYP1D1 and CYP3A65"}, {"measurement": "ethoxyresorufin-O-deethylase fluorescence, recombinant membranes", "setting": "CYP1B1", "result": "All CYP1s showed catalytic activity for 7-ER and BFC except for CYP1D1 and CYP3A65"}, {"measurement": "ethoxyresorufin-O-deethylase fluorescence, recombinant membranes", "setting": "CYP1C1", "result": "All CYP1s showed catalytic activity for 7-ER and BFC except for CYP1D1 and CYP3A65"}]}]}
